Drawing on US6897213B1, “Heterocycles as cholecystokinin (CCK) ligands” (Warner-Lambert Company, priority 1995, dated 2005), this text covers Ki for seven compounds.

For one test, the target named is T1, CCK-B receptor (Mus musculus, UniProt P56481).
T1 construct: from tissue; host or cells: mouse (male CFLP) cerebral cortex membranes
T1 sequence (P56481 1-453): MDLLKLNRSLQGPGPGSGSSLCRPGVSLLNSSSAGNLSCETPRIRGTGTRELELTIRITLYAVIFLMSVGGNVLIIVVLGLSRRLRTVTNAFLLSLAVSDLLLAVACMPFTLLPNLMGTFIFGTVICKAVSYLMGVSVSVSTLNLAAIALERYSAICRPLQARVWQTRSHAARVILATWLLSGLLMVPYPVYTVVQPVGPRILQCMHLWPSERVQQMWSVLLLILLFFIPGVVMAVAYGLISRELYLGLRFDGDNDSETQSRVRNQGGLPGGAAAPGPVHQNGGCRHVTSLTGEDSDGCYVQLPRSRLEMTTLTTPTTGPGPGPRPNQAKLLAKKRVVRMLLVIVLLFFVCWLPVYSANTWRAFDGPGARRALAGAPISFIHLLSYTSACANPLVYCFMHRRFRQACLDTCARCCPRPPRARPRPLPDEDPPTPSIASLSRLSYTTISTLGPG
The experiment in a line: CCK-B receptor binding affinity (tritiated-pentagastrin displacement, mouse cerebral cortical membranes). The settings on record: 2 nM tritiated-pentagastrin, Ki by Cheng-Prusoff. As to the method: The biological activity of compounds of the present invention may be evaluated by employing an initial screening test which rapidly and accurately measures the binding of the tested compound to known CCK receptor sites. […] (See Hays et al, Neuropeptides 1:53-62, 1980; and Satuer et al, Science 208:1155-1156, 1980).
In this screening test, the cerebral cortices taken from male CFLP mice weighing between 30-40 g were dissected on ice, weighed, and homogenized in 10 volumes of 50 mM Tris-HCl buffer (pH 7.4 at 0-4° C.). The resulting suspension was centrifuged, the supernate was discarded, and the pellet was washed by resuspension in Tris-HCl buffer followed by recentrifugation. The final pellet was resuspended in 20 volumes of […] buffer (pH 7.2 at 23° C.) containing 130 mM NaCl, […], […], 1 […].
In saturation studies, cerebral cortical membranes were incubated at 23° C. for 120 minutes in a final volume of 500 μL of Hepes incubation buffer (pH 7.2) together with 0.2-20 nM tritiated—pentagastrin (Amersham International, England).
In the displacement experiments, membranes were incubated with a single concentration (2 nM) of ligand, together with increasing concentrations (10^11 to 10^14 M) of competitive test compound. In each case, the nonspecific binding was defined as that persisting in the presence of the unlabeled octapeptide CCK26-33 (10^−6M).
Following incubation, radioactivity bound to membranes was separated from that free in solution by rapid filtration through Whatman GF/B filters and washed three times with 4 mL of ice cold Tris-HCl buffer. Filters from samples incubated with tritiated-pentagastrin were placed in polyethylene vials with 4 mL of scintillation cocktail, and the radioactivity was estimated by liquid scintillation spectrometry (efficiency 47-52%).
The specific binding to CCK receptor sites was defined as the total bound tritiated-pentagastrin minus the amount of tritiated-pentagastrin bound in the presence of 10^−6 octapeptide, CCK26-33.
Saturation curves for specific tritiated-pentagastrin binding to mouse cortical membranes were analyzed by the methods of Scatchard (Ann. New York Acad. Sci. 51:660-672, 1949, and Hill (J. Physiol. 40:IV-VIII, 1910), to provide estimates for the maximum number of binding sites (Bmax) and the equilibrium dissociation constant (Ka).
In displacement experiments, inhibition curves were analyzed by either logit-log plots or the iterative curve fitting computer program ALLFIT (DeLean, Munson and Redbard, 1978) to provide estimates of the IC50 and nH (apparent Hill coefficient values).
The inhibition constant (Ki) of the test compound was then calculated according to the Cheng-Prusoff equation: [formula] where [L] is the concentration of radiolabel and Ka is the equilibrium dissociation constant.
The Ki values for several representative compounds of the present invention are present in Table I.
(§1) The following table represents the CCK-A and CCK-B receptor binding affinities of the compounds.
(§2) The testing procedures are disclosed in Hays et al, Neuropeptides 1:53-62, 1980; and Satuer et al, Science 208:1155-1156, 1980.

Another test has as its target T2, CCK-A receptor (Homo sapiens, UniProt P32238).
T2 sequence (P32238 1-428): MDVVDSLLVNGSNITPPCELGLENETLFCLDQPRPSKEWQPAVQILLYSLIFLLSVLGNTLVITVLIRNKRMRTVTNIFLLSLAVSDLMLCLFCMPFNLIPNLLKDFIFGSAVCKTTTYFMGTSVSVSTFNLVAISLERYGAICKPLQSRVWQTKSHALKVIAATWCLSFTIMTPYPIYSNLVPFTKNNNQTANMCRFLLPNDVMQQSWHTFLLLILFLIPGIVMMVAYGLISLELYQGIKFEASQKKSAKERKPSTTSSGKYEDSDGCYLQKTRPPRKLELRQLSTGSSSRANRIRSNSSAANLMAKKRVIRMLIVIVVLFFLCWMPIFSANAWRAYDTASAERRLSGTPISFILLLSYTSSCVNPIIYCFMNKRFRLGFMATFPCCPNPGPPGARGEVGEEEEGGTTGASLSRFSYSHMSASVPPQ
As to the kind of experiment: CCK-A receptor binding affinity.
Source text: as §1, §2

Usually Ki stands for the equilibrium dissociation constant of an inhibitor or competing ligand from its target. Higher therefore signals lower affinity. Consider `CC(C)Oc1cccc(-n2c(NNC(=O)Nc3ccc(Br)cc3)nc3ccccc3c2=O)c1` [No. 1, Hydrazinecarboxamide, N-(4-bromophenyl)-2-[3,4-dihydro-3-[3-(1-methylethoxy)-phenyl]-4-oxo-2-quinazolinyl]-], for which the Ki on CCK-B receptor worked out at 16 nM; on CCK-A receptor, 3430 nM.
For `CC(C)Oc1cccc(-n2c(NNC(=O)Nc3cccc(C(=O)OC(C)(C)C)c3)nc3ccccc3c2=O)c1` [No. 7], in that order: 2 nM and 3580 nM.
For `CC(C)Oc1cccc(-n2c(NNC(=O)Nc3ccc(Cl)cc3)nc3ccccc3c2=O)c1` [No. 13, Hydrazinecarboxamide, N-(4-Chlorophenyl)-2-[3,4-dihydro-3-[3-(1-methylethoxy)phenyl]-4-oxo-2-quinazolinyl]], in that order: 12.9 nM and 3640 nM.
With `CC(C)Oc1cccc(-n2c(NNC(=O)Nc3cccc(C#N)c3)nc3ccccc3c2=O)c1` [No. 14, Hydrazinecarboxamide, N-(3-cyanohenyl)-2-[3,4-dihydro-3-[3-(1-methylethoxoy)phenyl]-4-oxo-2-quinazolinyl]-], the Ki was 1.2 nM on CCK-B receptor and 5390 nM on CCK-A receptor.
Turning to `CC(C)Oc1cccc(-n2c(NNC(=O)NC3CCCCC3)nc3ccccc3c2=O)c1` [No. 15, Hydrazinecarboxamide, N-(cyclohexyl)-2-[3,4-dihydro-3-[3-(1-methylethoxy)phenyl]-4-oxo-2-quinazolinyl]-], the Ki on CCK-B receptor was determined as 105 nM; on CCK-A receptor, 17700 nM.
For `CCOC(=O)c1cccc(NC(=O)NNc2nc3ccccc3c(=O)n2-c2ccc(Cl)c(Cl)c2)c1` [No. 21], in that order: 53.4 nM and 1760 nM.
For `CN(C)c1cccc(-n2c(NNC(=O)Nc3cccc(C#N)c3)nc3ccccc3c2=O)c1` [No. 40], in that order: 18.1 nM and 5740 nM.
